According to US5608095A, “Alkyl-4-silyl-phenols and esters thereof as antiatherosclerotic agents” (Hoechst Marion Roussel, Inc., priority 1996, dated 1997):
Read-outs that look alike come from different tables or passages of the source.

What was measured:
[1] = Clinical chemistries in serum of rats; assay type: in vivo, male Sprague-Dawley rats; details: for response vs control in vivo at 0.3 % / response vs control in vivo at 0.1 %: po, 96 h
Text: (§1) A typical experiment consisted of 4-6 groups of rats (N=5 per group) with 1 group being a control which received no MDL compound and the other groups being treated with 0.3% MDL compound. Some of the compounds were either repeated at 0.3% or evaluated again at the lower dose of 0.1%. Male Sprague-Dawley rats, 50-100 g, (Harlan Laboratories, Indianapolis, Ind.) were housed in groups of 5, fed ad libitum water and Purina Rodent chow (#5002) with or without MDL compound as a dietary admixture for 4 days. Dietary admixtures (0.3%) were made by mixing 1.2 grams of an MDL compound with 400 grams of Purina rodent chow (#5002). The MDL compound was mixed with approximately 50 grams of food using a mortar and pestle. This was added to the remainder of the food and mixed for 3 hours on a rotary mixer. In the morning of day 5, non-fasted rats were anesthetized with carbon dioxide, and blood was collected by cardiac puncture. Rats were sacrificed by cervical dislocation. Body weights and liver weights were recorded in grams. Food consumption was recorded as grams.cndot.day^-1.cndot.rat^-1. Deaths were recorded as mortality. Aliquots of fresh serum were used for clinical chemistries, thiobarbituric acid reactive substances (TBARS) and conjugated diene measurements. Aliquots of serum (~0.5mL) and whole livers were frozen at -20° C. for compound and metabolite concentration determination at a later time.
Blood was allowed to clot at room temperature for 30 minutes. Serum was obtained after centrifugation for 10 min at 4° C. at 3000 rpm in a Beckman J-6M/E centrifuge with a JS-4.2 rotor. Fresh serum was analyzed by a COBAS MIRA S autoanalyzer (Roche Diagnostics) using Roche diagnostic reagents for the following clinical chemistry measurements: alkaline phosphatase (ALP, kit #44553), alanine transaminase (ALT, kit #42375), aspartate aminotransferase (AST, kit #42381), total cholesterol (CHOL, kit #44334), triglyceride (TG, kit #44120), and glucose (GLU, kit #44558). ALP, ALT, and AST were calculated as units/L. Cholesterol, triglycerides, and glucose were calculated as mg/dL.

[2] = Animal parameters (food, body weight, liver weight, mortality) in rats; assay type: in vivo, male Sprague-Dawley rats; details: 4 days; for mortality at 96 h: in vivo, po, read-out: mortality (deaths per group); for mortality at 96 h / body wt., percent of control / lw/bw (liver weight/body weight), percent of control: rat
Text: as §1

[3] = HPLC quantitation of compound and metabolite concentration in rabbit serum and liver; assay type: in vivo, female New Zealand White rabbits; details: for concentration at 168 h: po
In short: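 Female New Zealand White rabbits fed 0.2% cholesterol chow with 0.4% compound (some at 0.26% or 0.6%) for 7 days (14 days at 0.6%), fasted overnight before sampling. Serum and liver extracts run by reverse-phase C18 HPLC, absorbance 240/254/420 nm, for parent, bisphenol and diphenoquinone; recovery-corrected, detection limit ~0.5 μg/mL.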

[4] = Rattus norvegicus, read-out: CHOL (total cholesterol), percent of control
[5] = Rattus norvegicus, read-out: TRIG (triglycerides), percent of control
[6] = rat serum, diet 0.3%, 4 days, read-out: CHOL (total cholesterol), percent of control
[7] = rat serum, diet 0.3%, 4 days, read-out: TRIG (triglycerides), percent of control
[8] = rat serum, diet 0.1%, 4 days, read-out: CHOL (total cholesterol), percent of control
[9] = rat serum, diet 0.1%, 4 days, read-out: TRIG (triglycerides), percent of control
[10] = rabbit liver, diet 0.4%, 7 days
[11] = rabbit serum, diet 0.4%, 7 days
[12] = rabbit liver, diet 0.4%, 7 days, read-out: Liver Parent = parent compound concentration
[13] = rabbit serum, diet 0.4%, 7 days, read-out: Serum Parent = parent compound concentration

| SMILES | response vs control in vivo at 0.3 % [1, 4] | response vs control in vivo at 0.3 % [1, 5] | ALP (alkaline phosphatase), percent of control ([1]; rat serum, diet 0.3%, 4 days) | ALT (alanine aminotransferase), percent of control ([1]; rat serum, diet 0.3%, 4 days) | AST (aspartate aminotransferase), percent of control ([1]; rat serum, diet 0.3%, 4 days) | GLUC (glucose), percent of control ([1]; rat serum, diet 0.3%, 4 days) | food (grams eaten per day per rat), percent of control ([2]; diet 0.3%) | mortality at 96 h ([2]; diet 0.3%) | body wt., percent of control ([2]; diet 0.3%) | lw/bw (liver weight/body weight), percent of control ([2]; diet 0.3%) | response vs control in vivo at 0.3 % [1, 6] | response vs control in vivo at 0.3 % [1, 7] | response vs control in vivo at 0.1 % [1, 8] | response vs control in vivo at 0.1 % [1, 9] | ALP (alkaline phosphatase), percent of control ([1]; rat serum, diet 0.1%, 4 days) | ALT (alanine aminotransferase), percent of control ([1]; rat serum, diet 0.1%, 4 days) | AST (aspartate aminotransferase), percent of control ([1]; rat serum, diet 0.1%, 4 days) | GLUC (glucose), percent of control ([1]; rat serum, diet 0.1%, 4 days) | food (grams eaten per day per rat), percent of control ([2]; diet 0.1%) | mortality at 96 h ([2]; diet 0.1%) | also measured |
| --- | --- | --- | --- | --- | --- | --- | --- | --- | --- | --- | --- | --- | --- | --- | --- | --- | --- | --- | --- | --- | --- |
| CC(C)(C)c1cc(OC[Si](C)(C)c2ccccc2)cc(C(C)(C)C)c1OC(=O)CCC(=O)O [MDL 103,076, 2,6-Di-t-butyl-4-[(dimethylphenylsilyl)methyloxy]phenol succinic acid ester] | 114% | 77% | 201% | 132% | 99% | 99% | 93% | 0% | 105% | 110% | – | – | – | – | – | – | – | – | – | – | – |
| CC(C)(C)c1cc(SC[Si](C)(C)c2ccccc2)cc(C(C)(C)C)c1OC(=O)CCC(=O)O [MDL 103,141, 2,6-Di-t-butyl-4-[(dimethylphenylsilyl)methylthio]phenol sucinic acid ester] | 119% | 47% | 147% | 126% | 120% | 107% | 87% | 0% | 91% | 96% | – | – | – | – | – | – | – | – | – | – | – |
| CC(=O)Oc1c(C(C)(C)C)cc(OC[Si](C)(C)c2ccccc2)cc1C(C)(C)C [MDL 103,377, 2,6-Di-t-butyl-4-[(dimethylphenylsilyl)methyloxy]phenol acetic acid ester] | – | – | 147% | 145% | 149% | 102% | 82% | 0% | 97% | 105% | 93% | 85% | – | – | – | – | – | – | – | – | – |
| CC(C)(C)c1cc(OC[Si](C)(C)c2ccccc2)ccc1O [MDL 103,491, 2-t-Butyl-4-[(dimethylphenylsilyl)methyloxy]phenol] | – | – | 80% | 127% | 114% | 94% | 89% | 0% | 100% | 130% | 146% | 131% | 112% | 92% | 116% | 133% | 94% | 101% | 92% | 0% | body wt., percent of control ([2]; diet 0.1%): 95%; lw/bw (liver weight/body weight), percent of control ([2]; diet 0.1%): 106%; Liver Parent = parent compound concentration [3, 10]: 0 µg/g; Liver Parent = parent compound concentration ([3]; rabbit liver, diet 0.6%, 14 days): 0 µg/g; Serum Parent = parent compound concentration [3, 11]: 0 µg/mL; Serum Parent = parent compound concentration ([3]; rabbit serum, diet 0.6%, 14 days): 0 µg/mL |
| CN(C)c1ccc([Si](C)(C)COc2cc(C(C)(C)C)c(O)c(C(C)(C)C)c2)cc1 [MDL 104,556, 2,6-Di-t-butyl-4-[(4-N,N-dimethylaminophenyldimethylsilyl)methyloxy]phenol] | – | – | 112% | 106% | 101% | 113% | 68% | 0% | 87% | 120% | 119% | 95% | 96% | 74% | 112% | 125% | 107% | 102% | 102% | 0% | body wt., percent of control ([2]; diet 0.1%): 103%; lw/bw (liver weight/body weight), percent of control ([2]; diet 0.1%): 106%; concentration at 168 h [3, 12]: 7900 ng/g; concentration at 168 h [3, 13]: 4900 ng/mL |
| CC(C)(C)c1cc(OC[Si](C)(c2ccccc2)c2ccccc2)cc(C(C)(C)C)c1O [MDL 104,599, 2,6-Di-t-butyl-4-[(diphenylmethylsilyl)methloxy]phenol] | – | – | 110% | 91% | 76% | 111% | 103% | 0% | 93% | 107% | 94% | 100% | – | – | – | – | – | – | – | – | concentration at 168 h [3, 12]: 47200 ng/g; concentration at 168 h [3, 13]: 14800 ng/mL |
| CC(C)(C)c1cc(OC[Si](C)(C)c2ccccc2)c(C(C)(C)C)cc1O [MDL 104,962, 2,5-Di-t-butyl-4-[(dimethylphenylsilyl)methyloxy]phenol] | – | – | 130% | 112% | 109% | 91% | 74% | 0% | 95% | 103% | 99% | 74% | – | – | – | – | – | – | – | – | concentration at 168 h [3, 12]: 3600 ng/g; concentration at 168 h [3, 13]: 3800 ng/mL |
| Cc1cc(OC[Si](C)(C)c2ccccc2)c(C)c(C)c1O [MDL 105,314, 2,3,6-Trimethyl-4-[(dimethylphenylsdilyl)methloxy]phenol] | 110% | 78% | 154% | 113% | 76% | 115% | 109% | 0% | 111% | 118% | – | – | – | – | – | – | – | – | – | – | – |
| CC(=O)Oc1ccc(OC[Si](C)(C)c2ccccc2)cc1C(C)(C)C [MDL 105,443, 2-t-Butyl-4-[(dimethylphenylsilyl)methyloxy]phenol acetic acid ester] | – | – | 90% | 156% | 171% | 98% | 84% | 0% | 95% | 118% | 131% | 126% | 111% | 111% | 101% | 116% | 94% | 106% | 100% | 0% | body wt., percent of control ([2]; diet 0.1%): 101%; lw/bw (liver weight/body weight), percent of control ([2]; diet 0.1%): 110%; Liver Parent = parent compound concentration [3, 10]: 0 µg/g; Serum Parent = parent compound concentration [3, 11]: 0 µg/mL |
